Values quoted from earlier work as cited in US7968712B2, “Process for the resolution of zopiclone and intermediate compounds” (Esteve Quimica, S.A., priority 2007, dated 2011).

Key:
[1] = compared with racemic zopiclone
[2] = compared with racemic zopiclone; remark: listed apart in the source

SMILES | activity relative to the racemate [1] | toxicity relative to the racemate [2]
CN1CCN(C(=O)O[C@@H]2c3nccnc3C(=O)N2c2ccc(Cl)cn2)CC1 (single isomer, unassigned) [laevorotatory isomer] | almost inactive | more toxic than the racemate
CN1CCN(C(=O)O[C@H]2c3nccnc3C(=O)N2c2ccc(Cl)cn2)CC1 [dextrorotatory enantiomer, eszopiclone] |  | lower toxicity than that of the racemate
